These results are taken from ChEMBL document CHEMBL1125936, “Synthesis and biological evaluation of 4-purinylpyrrolidine nucleosides” (J Med Chem, 1991).

Test [1] deals with Adenosine deaminase (Bos taurus) (UniProt P56658). As to the kind of experiment: Binding affinity towards adenosine deaminase.
Test [2] relates to Tumor Cell line. As to the kind of experiment: The compound was tested for inhibitory activity against panel of human tumor cell lines; Range = 0.08-14.02 uM. In kind it is functional, cell-based.
For test [3], the system named is Human immunodeficiency virus. Kind of test: The compound was tested for anti-HIV activity; Range = 5.0-15.0 uM. As to conditions: Human immunodeficiency virus 1; read-out: ED50 (the source's name). It counts as functional.

A word on the Ki: it is the dissociation constant of the complex between target and ligand, obtained from inhibition or displacement. Higher therefore signals lower affinity. The term IC50 denotes the midpoint of a concentration-inhibition curve. Read a low IC50 as inhibition by little substance.

Sequence of Adenosine deaminase (Bos taurus) (P56658 whole entry, looked up): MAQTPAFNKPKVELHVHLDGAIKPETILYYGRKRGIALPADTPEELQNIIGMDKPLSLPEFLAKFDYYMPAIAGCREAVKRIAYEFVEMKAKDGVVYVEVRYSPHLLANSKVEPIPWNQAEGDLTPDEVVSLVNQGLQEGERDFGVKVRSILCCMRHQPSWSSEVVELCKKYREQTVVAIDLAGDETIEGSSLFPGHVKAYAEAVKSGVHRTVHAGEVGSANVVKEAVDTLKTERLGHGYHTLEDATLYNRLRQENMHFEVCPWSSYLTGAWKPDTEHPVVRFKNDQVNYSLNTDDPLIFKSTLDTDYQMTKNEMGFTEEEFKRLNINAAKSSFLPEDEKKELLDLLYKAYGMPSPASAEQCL

Take `Nc1ncnc2c1ncn2[C@H]1CN[C@@H](CO)C1`: the Ki in test [1] amounted to 85 µM.

In test [2], `Cc1cn([C@@H]2C[C@H](CO)N(O)C2)c(=O)[nH]c1=O` had an IC50 of 0.08 µM.

With `Nc1ncnc2c1ncn2[C@H]1CO[C@@H](CO)C1`, the EC50 in test [3] was found to be 5 µM.
